For 8 compounds, IC50 results are on record in patent US11339130B1 (Blade Therapeutics, Inc., priority 2016, dated 2022).

Test [1] deals with T1, Human Calpain 1/NS1 (Homo sapiens, UniProt P07384).
T1 sequence (P07384 1-714): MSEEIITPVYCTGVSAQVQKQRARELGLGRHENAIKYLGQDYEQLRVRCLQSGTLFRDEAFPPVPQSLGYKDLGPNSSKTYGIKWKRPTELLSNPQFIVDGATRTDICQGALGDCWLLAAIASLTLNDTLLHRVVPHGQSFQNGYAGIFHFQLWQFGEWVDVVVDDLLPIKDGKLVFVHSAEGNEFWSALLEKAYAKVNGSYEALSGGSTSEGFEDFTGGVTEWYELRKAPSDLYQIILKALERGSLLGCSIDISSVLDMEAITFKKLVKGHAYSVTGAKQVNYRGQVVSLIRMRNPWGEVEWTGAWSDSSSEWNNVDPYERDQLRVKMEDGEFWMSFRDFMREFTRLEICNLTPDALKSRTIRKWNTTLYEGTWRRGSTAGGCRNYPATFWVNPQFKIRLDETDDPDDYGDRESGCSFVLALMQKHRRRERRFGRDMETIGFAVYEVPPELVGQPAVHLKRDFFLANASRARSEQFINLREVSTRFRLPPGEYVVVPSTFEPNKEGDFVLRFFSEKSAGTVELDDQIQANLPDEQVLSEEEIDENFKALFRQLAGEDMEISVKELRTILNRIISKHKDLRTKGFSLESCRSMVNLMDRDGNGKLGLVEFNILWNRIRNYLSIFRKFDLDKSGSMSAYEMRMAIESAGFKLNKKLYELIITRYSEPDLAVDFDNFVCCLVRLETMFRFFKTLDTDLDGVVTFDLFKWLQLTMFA
T1 sequence (P04632 1-268 partner): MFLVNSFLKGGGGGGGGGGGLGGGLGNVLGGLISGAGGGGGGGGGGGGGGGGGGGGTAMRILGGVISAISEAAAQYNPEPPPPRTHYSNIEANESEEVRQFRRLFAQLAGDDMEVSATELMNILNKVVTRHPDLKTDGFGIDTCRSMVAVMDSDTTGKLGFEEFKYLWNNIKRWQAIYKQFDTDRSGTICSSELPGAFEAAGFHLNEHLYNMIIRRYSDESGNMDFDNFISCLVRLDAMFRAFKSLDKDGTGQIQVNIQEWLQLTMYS
As to the kind of experiment: Calpain inhibition continuous fluorescence (FRET) assay, Human Calpain 1/NS1. Format: biochemical. The following applies: Column A; read-out: Human Calpain 1/NS1 IC50. Put shortly:
(§1)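 Continuous FRET read (ex 490/em 520 nm, 10 min) of calpain 1, 2 or 9 cleaving an internally quenched 5-FAM peptide, triggered by substrate with CaCl2 after enzyme–inhibitor incubation at ambient 25 °C, pH 7.5 Tris/NaCl/DTT buffer. IC50 from initial rates (1-5 min) via 4-parameter fit.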

In test [2] the target is T2, Human Calpain 2/NS1 (Homo sapiens, UniProt P17655).
T2 sequence (P17655 1-700): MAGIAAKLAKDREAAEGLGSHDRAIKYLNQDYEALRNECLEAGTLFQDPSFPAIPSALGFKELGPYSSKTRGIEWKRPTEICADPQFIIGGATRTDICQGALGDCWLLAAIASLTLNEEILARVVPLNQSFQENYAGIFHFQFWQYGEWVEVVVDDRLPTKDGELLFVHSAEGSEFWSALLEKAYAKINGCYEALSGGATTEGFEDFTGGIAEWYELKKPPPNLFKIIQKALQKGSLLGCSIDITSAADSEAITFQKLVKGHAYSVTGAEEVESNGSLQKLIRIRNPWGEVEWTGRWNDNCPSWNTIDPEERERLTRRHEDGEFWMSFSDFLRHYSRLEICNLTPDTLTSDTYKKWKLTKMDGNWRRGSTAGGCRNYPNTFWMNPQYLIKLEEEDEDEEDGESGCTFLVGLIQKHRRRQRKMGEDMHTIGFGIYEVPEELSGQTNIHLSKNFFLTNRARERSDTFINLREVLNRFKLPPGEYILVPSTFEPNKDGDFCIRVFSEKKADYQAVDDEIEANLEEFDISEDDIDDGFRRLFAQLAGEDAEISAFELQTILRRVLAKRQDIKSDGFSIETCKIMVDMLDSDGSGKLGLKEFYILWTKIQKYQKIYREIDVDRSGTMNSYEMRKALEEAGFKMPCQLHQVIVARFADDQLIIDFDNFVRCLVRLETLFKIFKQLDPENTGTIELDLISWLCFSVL
T2 sequence (P04632 1-268 partner): T1 sequence (P04632 1-268 partner)
As to the kind of experiment: Calpain inhibition continuous fluorescence (FRET) assay, Human Calpain 2/NS1. The following applies: Column B; read-out: Human Calpain 2/NS1 IC50. The test is classed as biochemical. Put shortly:
as §1

In test [3] the target is T3, Human Calpain 9/NS1 (Homo sapiens, UniProt O14815).
T3 sequence (O14815 1-690): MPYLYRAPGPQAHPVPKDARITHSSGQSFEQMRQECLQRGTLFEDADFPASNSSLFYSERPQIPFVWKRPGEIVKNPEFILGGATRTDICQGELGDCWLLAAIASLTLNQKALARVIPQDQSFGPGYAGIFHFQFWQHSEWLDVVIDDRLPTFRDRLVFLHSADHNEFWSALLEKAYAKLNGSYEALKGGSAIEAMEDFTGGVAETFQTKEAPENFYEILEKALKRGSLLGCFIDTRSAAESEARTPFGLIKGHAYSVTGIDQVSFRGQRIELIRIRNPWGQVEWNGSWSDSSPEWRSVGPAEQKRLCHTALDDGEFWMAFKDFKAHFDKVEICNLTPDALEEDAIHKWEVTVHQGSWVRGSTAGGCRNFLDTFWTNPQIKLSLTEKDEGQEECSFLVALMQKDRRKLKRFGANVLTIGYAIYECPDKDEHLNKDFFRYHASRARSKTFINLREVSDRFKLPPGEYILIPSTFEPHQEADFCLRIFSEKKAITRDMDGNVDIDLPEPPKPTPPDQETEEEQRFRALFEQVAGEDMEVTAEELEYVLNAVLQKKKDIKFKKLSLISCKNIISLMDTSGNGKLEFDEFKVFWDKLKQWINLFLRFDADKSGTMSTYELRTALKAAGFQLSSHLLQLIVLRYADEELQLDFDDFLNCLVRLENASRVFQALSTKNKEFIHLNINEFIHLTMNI
T3 sequence (P04632 1-268 partner): T1 sequence (P04632 1-268 partner)
The test is described as follows: Calpain inhibition continuous fluorescence (FRET) assay, Human Calpain 9/NS1. Format: biochemical. The following applies: Column C; read-out: Human Calpain 9/NS1 IC50. Put shortly: as §1

Test [4] concerns Calpain activity in SH-SY5Y cells (SBDP-150). The test is described as follows: SH-SY5Y Spectrin western blot assay (SBDP-150 breakdown product, A23187-induced). The test is classed as cell-based. The following applies: Homo sapiens; Column D; SH-SY5Y cells, A23187-induced SBDP-150; read-out: SH-SY5Y Spectrin IC50. On the technique in general: A western blot detects proteins with antibodies after separation by electrophoresis.

The subject of test [5] is Calpain activity in SH-SY5Y cells. As to the kind of experiment: SH-SY5Y + AMC fluorescence assay (Suc-LLVY-AMC substrate). The test is classed as cell-based. The following applies: Column E, read-out: SH-SY5Y + AMC IC50.

Consider `CC(C)c1cccc(-c2nn(C)cc2C(=O)N[C@@H](Cc2ccccc2)C(=O)C(N)=O)c1` [Compound 180, (S)—N-(4-amino-3,4-dioxo-1-phenylbutan-2-yl)-3-(3-isopropylphenyl)-1-methyl-1H-pyrazole-4-carboxamide], for which the IC50 in test [1] is less than 3 µM; in test [2], less than 3 µM; in test [3], less than 3 µM; in test [4], less than 10 µM; in test [5], 10 to 25 µM.
In the case of `Cn1cc(C(=O)N[C@@H](Cc2ccccc2)C(=O)C(N)=O)c(-c2ccccc2F)n1` [Compound 181, (S)—N-(4-amino-3,4-dioxo-1-phenylbutan-2-yl)-3-(2-fluorophenyl)-1-methyl-1H-pyrazole-4-carboxamide], the IC50 in test [1] is less than 3 µM; in test [2] it was less than 3 µM; in test [3], less than 3 µM; in test [4] it was less than 10 µM; in test [5], less than 10 µM.
`CCc1cccc(-c2nn(C)cc2C(=O)N[C@@H](Cc2ccccc2)C(=O)C(N)=O)c1` [Compound 182, (S)—N-(4-amino-3,4-dioxo-1-phenylbutan-2-yl)-3-(3-ethylphenyl)-1-methyl-1H-pyrazole-4-carboxamide]: the IC50 in test [1] is less than 3 µM; in test [2] it was less than 3 µM; in test [3], less than 3 µM; in test [4], 10 to 25 µM; in test [5], less than 10 µM.
With `Cn1cc(C(=O)N[C@@H](Cc2ccccc2)C(=O)C(N)=O)c(-c2cccc(C(F)(F)F)c2)n1` [Compound 183, (S)—N-(4-amino-3,4-dioxo-1-phenylbutan-2-yl)-1-methyl-3-(3-(trifluoromethyl)phenyl)-1H-pyrazole-4-carboxamide], the IC50 is less than 3 µM in test [1]; less than 3 µM in test [2]; less than 3 µM in test [3]; less than 10 µM in test [4]; 10 to 25 µM in test [5].
Regarding `Cn1cc(C(=O)N[C@@H](Cc2ccccc2)C(=O)C(N)=O)c(-c2cccc(C#N)c2)n1` [Compound 185, (S)—N-(4-amino-3,4-dioxo-1-phenylbutan-2-yl)-3-(3-cyanophenyl)-1-methyl-1H-pyrazole-4-carboxamide], the IC50 in test [1] is more than 10 µM; in test [2] it was 3 to 10 µM; in test [3] it was 3 to 10 µM; in test [4] it was more than 25 µM; in test [5], more than 25 µM.
Consider `Cn1cc(C(=O)N[C@@H](Cc2ccccc2)C(=O)C(N)=O)c(-c2cccc(C3CC3)c2)n1` [Compound 186, (S)—N-(4-amino-3,4-dioxo-1-phenylbutan-2-yl)-3-(3-cyclopropylphenyl)-1-methyl-1H-pyrazole-4-carboxamide], for which the IC50 was 3 to 10 µM in test [1]; 3 to 10 µM in test [2]; 3 to 10 µM in test [3]; more than 25 µM in test [4]; more than 25 µM in test [5].
Consider `Cn1cc(C(=O)N[C@@H](Cc2ccccc2)C(=O)C(N)=O)c(-c2cccc(Cl)c2)n1` [Compound 187, (S)—N-(4-amino-3,4-dioxo-1-phenylbutan-2-yl)-3-(3-chlorophenyl)-1-methyl-1H-pyrazole-4-carboxamide], for which the IC50 in test [1] was less than 3 µM; in test [2], less than 3 µM; in test [3] it was less than 3 µM; in test [4] it was 10 to 25 µM; in test [5] it was more than 25 µM.
For the compound `Cn1cc(C(=O)N[C@@H](Cc2ccccc2)C(=O)C(N)=O)c(-c2cccnc2)n1` [Compound 188, (S)—N-(4-amino-3,4-dioxo-1-phenylbutan-2-yl)-1-methyl-3-(pyridin-3-yl)-1H-pyrazole-4-carboxamide], the IC50 in test [1] was less than 3 µM; in test [2], less than 3 µM; in test [3] it was less than 3 µM; in test [4] it was 10 to 25 µM; in test [5] it was more than 25 µM.
